In PMC12586182 (Frontiers in Oncology, 2025):
pIC50: −log10 of the molar value.

What was measured:
CDK4/CycD3 = molecular target: T1, CDK4/CycD3 (Homo sapiens, UniProt P11802); assay: Kinase panel profiling at 1 µmol/L (mobility shift assay, Carna); type: biochemical; details: 1 µmol/L of BTK inhibitor
T1 construct: purchased Carna Biosciences

p70S6K = molecular target: T2, p70S6K (Homo sapiens, UniProt P23443); assay: as above; type: biochemical; details: 1 µmol/L of BTK inhibitor
T2 construct: purchased Carna Biosciences

PBK = molecular target: T3, PBK (Homo sapiens, UniProt Q96KB5); assay: as above; type: biochemical; details: 1 µmol/L of BTK inhibitor
T3 construct: purchased Carna Biosciences
T3 sequence (Q96KB5 1-322): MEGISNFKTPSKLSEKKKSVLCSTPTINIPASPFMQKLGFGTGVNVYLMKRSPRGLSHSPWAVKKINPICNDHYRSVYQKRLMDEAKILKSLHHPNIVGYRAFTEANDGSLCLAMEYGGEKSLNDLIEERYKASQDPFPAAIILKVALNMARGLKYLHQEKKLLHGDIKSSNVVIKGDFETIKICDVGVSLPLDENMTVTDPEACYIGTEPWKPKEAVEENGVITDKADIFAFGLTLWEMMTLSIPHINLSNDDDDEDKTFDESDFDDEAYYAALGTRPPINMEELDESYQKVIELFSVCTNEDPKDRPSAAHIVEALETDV

ZAP70 = molecular target: T4, ZAP70 (Homo sapiens, UniProt P43403); assay: as above; type: biochemical; details: 1 µmol/L of BTK inhibitor
T4 construct: purchased Carna Biosciences
T4 sequence (P43403 1-619): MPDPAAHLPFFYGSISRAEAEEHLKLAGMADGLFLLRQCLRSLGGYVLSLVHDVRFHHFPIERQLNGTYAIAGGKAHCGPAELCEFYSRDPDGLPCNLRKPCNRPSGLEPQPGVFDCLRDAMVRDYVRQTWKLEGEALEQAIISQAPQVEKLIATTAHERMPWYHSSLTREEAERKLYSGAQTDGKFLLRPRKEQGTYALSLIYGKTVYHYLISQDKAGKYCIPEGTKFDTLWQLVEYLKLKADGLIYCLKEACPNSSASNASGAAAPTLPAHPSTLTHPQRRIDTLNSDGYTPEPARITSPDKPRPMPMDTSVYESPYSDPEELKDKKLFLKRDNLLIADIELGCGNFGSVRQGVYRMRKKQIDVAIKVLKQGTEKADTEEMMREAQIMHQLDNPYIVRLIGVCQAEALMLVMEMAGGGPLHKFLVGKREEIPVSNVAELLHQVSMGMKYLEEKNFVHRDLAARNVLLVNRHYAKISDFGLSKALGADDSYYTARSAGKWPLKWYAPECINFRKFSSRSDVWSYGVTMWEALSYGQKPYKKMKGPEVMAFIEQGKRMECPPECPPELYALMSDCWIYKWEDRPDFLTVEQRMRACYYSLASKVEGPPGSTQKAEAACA

FGFR2 = FGFR2 (Homo sapiens, UniProt P21802); assay: Kinase enzyme activity assay (mobility shift assay, Carna); details: for Percentage inhibition of kinase enzyme activity: FGFR2, 1 µmol/L of BTK inhibitor
FGFR2, sequence (P21802 22-821): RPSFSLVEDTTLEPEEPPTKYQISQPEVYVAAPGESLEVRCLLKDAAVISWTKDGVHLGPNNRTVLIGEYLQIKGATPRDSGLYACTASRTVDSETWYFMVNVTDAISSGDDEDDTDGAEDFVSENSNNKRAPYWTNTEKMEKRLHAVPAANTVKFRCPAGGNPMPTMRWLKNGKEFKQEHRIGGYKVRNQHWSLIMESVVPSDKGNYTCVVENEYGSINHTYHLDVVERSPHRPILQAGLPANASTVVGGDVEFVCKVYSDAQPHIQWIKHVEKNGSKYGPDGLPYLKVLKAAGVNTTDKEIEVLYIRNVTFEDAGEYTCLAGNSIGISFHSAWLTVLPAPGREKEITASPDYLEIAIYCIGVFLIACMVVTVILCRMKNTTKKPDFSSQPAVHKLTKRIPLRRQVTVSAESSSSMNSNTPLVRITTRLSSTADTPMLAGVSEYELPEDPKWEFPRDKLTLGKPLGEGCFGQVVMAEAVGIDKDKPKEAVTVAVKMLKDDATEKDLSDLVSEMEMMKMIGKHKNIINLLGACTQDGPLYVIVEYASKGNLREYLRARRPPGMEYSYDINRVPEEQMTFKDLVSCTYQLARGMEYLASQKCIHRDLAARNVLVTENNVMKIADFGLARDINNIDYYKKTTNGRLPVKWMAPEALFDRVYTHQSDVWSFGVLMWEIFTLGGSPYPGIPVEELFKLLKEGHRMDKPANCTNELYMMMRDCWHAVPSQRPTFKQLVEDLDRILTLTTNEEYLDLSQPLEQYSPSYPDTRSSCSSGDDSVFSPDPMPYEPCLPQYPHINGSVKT

MAPKAPK5 = molecular target: T5, MAPKAPK5 (Homo sapiens, UniProt Q8IW41); assay: Kinase panel profiling at 1 µmol/L (mobility shift assay, Carna); type: biochemical; details: 1 µmol/L of BTK inhibitor
T5 construct: purchased Carna Biosciences
T5 sequence (Q8IW41 1-473): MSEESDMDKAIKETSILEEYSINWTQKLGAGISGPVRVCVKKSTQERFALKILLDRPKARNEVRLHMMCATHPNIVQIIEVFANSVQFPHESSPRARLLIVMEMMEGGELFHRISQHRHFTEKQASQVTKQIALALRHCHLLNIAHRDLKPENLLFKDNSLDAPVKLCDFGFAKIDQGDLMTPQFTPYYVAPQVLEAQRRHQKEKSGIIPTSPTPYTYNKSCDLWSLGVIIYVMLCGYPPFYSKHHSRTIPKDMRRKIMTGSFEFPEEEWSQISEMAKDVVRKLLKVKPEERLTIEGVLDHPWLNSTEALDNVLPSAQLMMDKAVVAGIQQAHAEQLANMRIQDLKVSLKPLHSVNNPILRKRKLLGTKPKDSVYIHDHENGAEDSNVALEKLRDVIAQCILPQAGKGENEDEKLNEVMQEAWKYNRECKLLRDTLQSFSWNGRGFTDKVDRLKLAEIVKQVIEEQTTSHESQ

PDHK4 = molecular target: T6, PDHK4 (Homo sapiens, UniProt Q16654); assay: as above; type: biochemical; details: 1 µmol/L of BTK inhibitor
T6 construct: purchased Carna Biosciences
T6 sequence (Q16654 whole entry): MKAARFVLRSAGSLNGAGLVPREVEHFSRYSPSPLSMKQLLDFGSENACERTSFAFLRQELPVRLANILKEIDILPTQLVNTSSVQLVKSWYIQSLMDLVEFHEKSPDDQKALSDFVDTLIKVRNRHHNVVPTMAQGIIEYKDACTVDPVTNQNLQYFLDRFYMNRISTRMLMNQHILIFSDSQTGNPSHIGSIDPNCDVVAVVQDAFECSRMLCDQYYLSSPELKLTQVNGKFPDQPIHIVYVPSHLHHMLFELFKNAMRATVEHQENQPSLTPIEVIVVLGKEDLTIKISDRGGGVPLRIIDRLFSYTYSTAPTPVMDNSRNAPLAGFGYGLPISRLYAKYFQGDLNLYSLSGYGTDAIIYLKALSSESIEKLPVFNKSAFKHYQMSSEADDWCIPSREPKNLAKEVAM

AKT1 = molecular target: T7, AKT1 (Homo sapiens, UniProt P31749); assay: as above; type: biochemical; details: 1 µmol/L of BTK inhibitor
T7 construct: purchased Carna Biosciences
T7 sequence (P31749 whole entry): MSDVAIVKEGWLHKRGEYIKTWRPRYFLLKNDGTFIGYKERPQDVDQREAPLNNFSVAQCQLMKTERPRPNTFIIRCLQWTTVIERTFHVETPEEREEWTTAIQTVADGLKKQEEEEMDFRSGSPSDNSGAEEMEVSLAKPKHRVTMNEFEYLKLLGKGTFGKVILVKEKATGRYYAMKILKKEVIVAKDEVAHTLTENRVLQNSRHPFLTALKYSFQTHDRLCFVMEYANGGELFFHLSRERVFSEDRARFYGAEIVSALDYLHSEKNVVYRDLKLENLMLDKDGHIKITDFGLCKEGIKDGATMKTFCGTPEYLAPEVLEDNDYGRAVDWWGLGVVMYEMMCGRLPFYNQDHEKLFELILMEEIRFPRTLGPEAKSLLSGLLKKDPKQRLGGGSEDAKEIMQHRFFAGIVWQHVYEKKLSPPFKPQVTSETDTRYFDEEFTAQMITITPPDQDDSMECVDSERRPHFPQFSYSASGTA

PHKG2 = molecular target: T8, PHKG2 (Homo sapiens, UniProt P15735); assay: as above; type: biochemical; details: 1 µmol/L of BTK inhibitor
T8 construct: purchased Carna Biosciences
T8 sequence (P15735 1-406): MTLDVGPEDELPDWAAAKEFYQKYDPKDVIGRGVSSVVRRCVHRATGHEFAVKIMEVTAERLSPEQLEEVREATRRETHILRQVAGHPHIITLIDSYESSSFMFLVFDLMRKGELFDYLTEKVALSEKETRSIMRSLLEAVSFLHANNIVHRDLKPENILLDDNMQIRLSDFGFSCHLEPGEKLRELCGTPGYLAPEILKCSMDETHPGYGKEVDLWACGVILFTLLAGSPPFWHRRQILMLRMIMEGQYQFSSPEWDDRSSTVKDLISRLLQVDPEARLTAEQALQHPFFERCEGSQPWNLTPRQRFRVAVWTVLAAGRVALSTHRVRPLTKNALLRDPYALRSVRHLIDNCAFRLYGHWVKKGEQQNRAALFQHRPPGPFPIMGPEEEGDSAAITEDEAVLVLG

CRIK = molecular target: T9, CRIK (Homo sapiens, UniProt O14578); assay: as above; type: biochemical; details: 1 µmol/L of BTK inhibitor
T9 construct: purchased Carna Biosciences
T9 sequence (O14578 whole entry): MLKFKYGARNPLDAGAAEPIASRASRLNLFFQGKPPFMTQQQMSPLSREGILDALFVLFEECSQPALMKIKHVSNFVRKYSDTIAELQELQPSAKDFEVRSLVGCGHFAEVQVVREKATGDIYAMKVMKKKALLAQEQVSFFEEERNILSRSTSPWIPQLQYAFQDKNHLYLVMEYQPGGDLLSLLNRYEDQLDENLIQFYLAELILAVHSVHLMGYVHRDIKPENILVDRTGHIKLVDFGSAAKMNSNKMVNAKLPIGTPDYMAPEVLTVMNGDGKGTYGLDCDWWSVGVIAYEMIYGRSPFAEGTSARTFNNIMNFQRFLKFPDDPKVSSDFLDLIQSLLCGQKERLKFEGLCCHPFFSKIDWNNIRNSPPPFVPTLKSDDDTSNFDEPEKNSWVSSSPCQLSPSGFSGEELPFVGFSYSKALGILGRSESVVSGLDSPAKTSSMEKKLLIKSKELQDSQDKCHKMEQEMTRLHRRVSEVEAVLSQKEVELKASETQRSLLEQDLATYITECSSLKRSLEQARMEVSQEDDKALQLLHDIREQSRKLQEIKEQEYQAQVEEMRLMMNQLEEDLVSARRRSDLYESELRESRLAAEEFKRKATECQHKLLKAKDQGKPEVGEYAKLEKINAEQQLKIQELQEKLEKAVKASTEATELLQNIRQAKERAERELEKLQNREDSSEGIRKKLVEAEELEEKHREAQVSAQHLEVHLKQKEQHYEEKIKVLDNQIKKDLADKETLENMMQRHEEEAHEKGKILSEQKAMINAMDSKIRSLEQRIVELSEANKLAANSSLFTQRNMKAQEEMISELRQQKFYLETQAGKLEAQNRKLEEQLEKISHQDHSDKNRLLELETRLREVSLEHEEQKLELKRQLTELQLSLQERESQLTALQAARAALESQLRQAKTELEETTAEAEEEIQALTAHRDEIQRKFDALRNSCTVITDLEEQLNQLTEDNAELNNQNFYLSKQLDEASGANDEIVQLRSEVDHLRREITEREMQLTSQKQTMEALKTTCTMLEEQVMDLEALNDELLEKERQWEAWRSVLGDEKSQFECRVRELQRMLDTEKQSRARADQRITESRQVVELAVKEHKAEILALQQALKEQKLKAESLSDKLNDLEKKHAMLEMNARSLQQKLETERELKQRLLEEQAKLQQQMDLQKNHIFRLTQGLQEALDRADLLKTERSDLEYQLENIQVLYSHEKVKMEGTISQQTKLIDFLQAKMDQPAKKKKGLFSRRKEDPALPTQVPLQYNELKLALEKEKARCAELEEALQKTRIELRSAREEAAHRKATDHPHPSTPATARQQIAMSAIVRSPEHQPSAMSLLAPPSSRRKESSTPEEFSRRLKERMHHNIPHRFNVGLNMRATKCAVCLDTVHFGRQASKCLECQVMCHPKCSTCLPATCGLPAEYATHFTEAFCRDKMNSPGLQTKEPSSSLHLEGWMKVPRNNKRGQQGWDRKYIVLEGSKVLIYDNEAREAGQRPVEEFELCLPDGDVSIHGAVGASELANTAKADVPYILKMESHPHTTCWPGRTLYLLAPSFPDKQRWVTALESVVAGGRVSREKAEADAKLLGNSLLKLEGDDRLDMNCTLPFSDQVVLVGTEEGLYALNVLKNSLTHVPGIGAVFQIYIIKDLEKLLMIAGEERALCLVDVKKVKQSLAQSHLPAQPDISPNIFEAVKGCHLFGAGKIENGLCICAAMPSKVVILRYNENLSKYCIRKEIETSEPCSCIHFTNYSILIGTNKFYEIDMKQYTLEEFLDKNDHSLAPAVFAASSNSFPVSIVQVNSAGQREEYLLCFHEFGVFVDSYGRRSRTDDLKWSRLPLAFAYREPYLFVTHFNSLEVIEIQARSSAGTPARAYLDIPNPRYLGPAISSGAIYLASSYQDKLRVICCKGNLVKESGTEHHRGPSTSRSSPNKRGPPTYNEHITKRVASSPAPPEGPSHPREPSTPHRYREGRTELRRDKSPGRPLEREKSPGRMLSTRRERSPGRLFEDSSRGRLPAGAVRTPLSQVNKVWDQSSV

PIM2 = molecular target: T10, PIM2 (Homo sapiens, UniProt Q9P1W9); assay: as above; type: biochemical; details: 1 µmol/L of BTK inhibitor
T10 construct: purchased Carna Biosciences
T10 sequence (Q9P1W9 whole entry): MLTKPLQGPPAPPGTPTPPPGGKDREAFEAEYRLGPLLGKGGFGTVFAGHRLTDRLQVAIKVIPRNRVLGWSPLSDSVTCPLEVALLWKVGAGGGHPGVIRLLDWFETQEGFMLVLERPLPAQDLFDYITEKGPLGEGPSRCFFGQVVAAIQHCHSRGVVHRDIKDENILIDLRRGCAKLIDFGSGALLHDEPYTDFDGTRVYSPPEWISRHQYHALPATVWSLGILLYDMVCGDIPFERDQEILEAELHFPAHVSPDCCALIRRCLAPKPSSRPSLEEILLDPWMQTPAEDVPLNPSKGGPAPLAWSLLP

T1 sequence (P11802 whole entry): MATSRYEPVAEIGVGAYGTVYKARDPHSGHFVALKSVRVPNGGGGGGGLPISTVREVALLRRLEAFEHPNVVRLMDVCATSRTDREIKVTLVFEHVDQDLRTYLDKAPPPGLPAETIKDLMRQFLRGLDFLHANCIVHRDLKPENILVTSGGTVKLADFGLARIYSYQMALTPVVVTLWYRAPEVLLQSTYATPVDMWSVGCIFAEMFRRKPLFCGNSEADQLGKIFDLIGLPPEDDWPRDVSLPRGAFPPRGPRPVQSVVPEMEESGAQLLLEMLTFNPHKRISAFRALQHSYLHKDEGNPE
T1 sequence (P30281 whole entry partner): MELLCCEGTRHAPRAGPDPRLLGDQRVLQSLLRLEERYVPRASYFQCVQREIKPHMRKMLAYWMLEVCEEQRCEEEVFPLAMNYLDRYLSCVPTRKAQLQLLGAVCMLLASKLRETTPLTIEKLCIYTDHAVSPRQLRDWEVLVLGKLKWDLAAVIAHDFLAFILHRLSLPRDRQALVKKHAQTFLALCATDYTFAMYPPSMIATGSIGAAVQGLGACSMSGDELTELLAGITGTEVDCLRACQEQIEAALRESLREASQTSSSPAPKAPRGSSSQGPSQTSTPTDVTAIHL

Compound | Percentage inhibition of kinase enzyme activity (CDK4/CycD3) [%] | Percentage inhibition of kinase enzyme activity (p70S6K) [%] | Percentage inhibition of kinase enzyme activity (PBK) [%] | Percentage inhibition of kinase enzyme activity (ZAP70) [%] | Percentage inhibition of kinase enzyme activity (FGFR2) [%] | Percentage inhibition of kinase enzyme activity (MAPKAPK5) [%] | Percentage inhibition of kinase enzyme activity (PDHK4) [%] | Percentage inhibition of kinase enzyme activity (AKT1) [%] | Percentage inhibition of kinase enzyme activity (PHKG2) [%] | Percentage inhibition of kinase enzyme activity (CRIK) [%] | Percentage inhibition of kinase enzyme activity (PIM2) [%] | pIC50 (FGFR2)
CC#CC(=O)N1CCC[C@H]1c1nc(-c2ccc(C(=O)Nc3ccccn3)cc2)c2c(N)nccn12 [acalabrutinib] | -13.28 | -13.73 | -15.29 | -1.53 | -6.22 | -1.87 | 0.39 | -6.23 | 0.00605 | -5.14 | -16.50 | 
C=CC(=O)N1CCC[C@@H](n2nc(-c3ccc(Oc4ccccc4)cc3)c3c(N)ncnc32)C1 [ibrutinib] | 4.00 | 19.28 | -9.30 | -4.51 | 81.29 | -2.44 |  | -9.41 | 0.82 | -0.17 | -5.09 | 
O=C(c1ccc(Oc2ccccc2)cc1Cl)c1c[nH]c2ncnc(N[C@@H]3CC[C@@H](CO)OC3)c12 [nemtabrutinib] | 0.33 | 4.51 | -7.49 | 8.61 | 45.29 | -2.46 | -2.73 | -8.43 | 5.39 | -5.26 | -5.51 | 7.47
COc1ccc(F)cc1C(=O)NCc1ccc(-c2nn([C@@H](C)C(F)(F)F)c(N)c2C(N)=O)cc1 [pirtobrutinib] | 4.05 | -0.48 | -3.79 | -3.75 | 12.14 | -1.10 | 3.76 | -12.80 | 7.27 | -3.77 | -1.91 | 
C=CC(=O)N1CCC([C@@H]2CCNc3c(C(N)=O)c(-c4ccc(Oc5ccccc5)cc4)nn32)CC1 [zanubrutinib] |  |  |  |  | 1.70 |  |  |  |  |  |  | 
